Data reported in paper PMC12396409, “Screening and hit evaluation of a microbial metabolite library against the pathogenic Plasmodium falciparum and Toxoplasma gondii parasites” (International Journal for Parasitology: Drugs and Drug …, 2025).
Read-outs that look alike come from different tables or passages of the source. *1 amine or outer side, *2 acyl side, *3 side chain or, on linkers, in order; H or OH if unused. Where a SMILES comes first, the peptide text is derived from it. Bridges are numbered along the chain shown (N, C = ends). [ ]: non-standard residue; d: D form. The star is where a group is joined. Orn(4R-OH,5R-OH) = O=C([C@H](C[C@@H](O)[C@@H](O)N[*:3])N[*:1])[*:2]; Tetradecanoyl(10R,12S-Me2) = CC[C@H](C)C[C@H](C)CCCCCCCCC(=O)*; hTyr(3S-OH,4S-OH) = N[C@H](C(=O)O)[C@H](O)[C@@H](O)c1ccc(O)cc1; Gln(3R-OH) = NC(=O)C[C@@H](O)[C@H](N)C(=O)O; Pro(3S-OH) = O=C(O)[C@H]1NCC[C@@H]1O; Hyp = O=C(O)[C@@H]1C[C@@H](O)CN1

Columns and labels:
[1] = tested on: P. falciparum 3D7 parasites; assay: P. falciparum growth inhibition assay, 1-cycle (72 h treatment), SYBR DNA staining (library screen at 2 μg/mL and dose-response); format: cell-based, Plasmodium falciparum; settings: for activity at 2 µg/mL: Plasmodium falciparum
[2] = tested on: P. falciparum 3D7 parasites; assay: P. falciparum growth inhibition assay, 2-cycle (120 h treatment), delayed-death screen and dose-response; format: cell-based, Plasmodium falciparum; settings: for activity at 2 µg/mL: Plasmodium falciparum
[3] = tested on: T. gondii RH strain (RH-Tub-eYFP) tachyzoites; assay: microbe, parasite or virus in culture; format: cell-based, Toxoplasma gondii
[4] = P. falciparum, 72 h, parasite screen 2 μg/mL, % growth, replicate 1
[5] = P. falciparum, 72 h, parasite screen 2 μg/mL, % growth, replicate 2
[6] = P. falciparum, 120 h, parasite screen 2 μg/mL, % growth, replicate 1
[7] = P. falciparum, 120 h, parasite screen 2 μg/mL, % growth, replicate 2
[8] = T. gondii, 72 h, parasite screen 2 μg/mL, % growth, replicate 1
[9] = T. gondii, 72 h, parasite screen 2 μg/mL, % growth, replicate 2
[10] = library screen at 2 μg/mL, 72 h, % growth, replicate 1
[11] = library screen at 2 μg/mL, 72 h, % growth, replicate 2
[12] = 3D7, library screen at 2 μg/mL, 72 h, % growth, replicate 1, read-out: Pf_72h_%Growth_Rep1
[13] = 3D7, library screen at 2 μg/mL, 72 h, % growth, replicate 2, read-out: Pf_72h_%Growth_Rep2
[14] = 3D7, library screen at 2 μg/mL, 120 h, % growth, replicate 1, read-out: Pf_120h_%Growth_Rep1
[15] = 3D7, library screen at 2 μg/mL, 120 h, % growth, replicate 2, read-out: Pf_120h_%Growth_Rep2
[16] = 3D7, P. falciparum, 72 h, screen at 2 μg/mL, replicate 1, read-out: Pf_72h_%Growth_Rep1
[17] = 3D7, P. falciparum, 72 h, screen at 2 μg/mL, replicate 2, read-out: Pf_72h_%Growth_Rep2
[18] = 3D7, P. falciparum, 120 h, screen at 2 μg/mL, replicate 1, read-out: Pf_120h_%Growth_Rep1
[19] = 3D7, P. falciparum, 120 h, screen at 2 μg/mL, replicate 2, read-out: Pf_120h_%Growth_Rep2

## C=C1CC[C@H](O)C(C)(C)[C@@H]1CC/C(C)=C/CC/C(C)=C/Cc1c(O)cc(C)oc1=O [Sartorypyrone D]
[1]; [4]
  Pf_72h_%Growth_Rep1: 81.94%
[1]; [5]
  Pf_72h_%Growth_Rep2: 66.06%
[2]; [6]
  Pf_120h_%Growth_Rep1: 72.77%
[2]; [7]
  Pf_120h_%Growth_Rep2: 7.76%
[3]; [8]
  Tg_72h_%Growth_Rep1: 121.13%
[3]; [9]
  Tg_72h_%Growth_Rep2: 88.47%

## COc1c(OC)c(-c2c[nH]c3ccccc23)c(OC)c(OC)c1-c1c[nH]c2ccccc12 [Asterriquinol D dimethylether]
[1]; [10]
  Pf_72h_%Growth_Rep1: 80.59%
[1]; [11]
  Pf_72h_%Growth_Rep2: 80.67%
[2]; library screen at 2 μg/mL, 120 h, % growth, replicate 1
  Pf_120h_%Growth_Rep1: 55.71%
[2]; library screen at 2 μg/mL, 120 h, % growth, replicate 2
  Pf_120h_%Growth_Rep2: 80.70%
[3]; [10]
  Tg_72h_%Growth_Rep1: 135.53%
[3]; [11]
  Tg_72h_%Growth_Rep2: 89.90%

## C=CC(C)(C)c1[nH]c2c(CC=C(C)C)cc(CC=C(C)C)cc2c1C[C@@H]1NC(=O)[C@H](C)NC1=O [Echinulin]
[1]; [12]
  activity at 2 µg/mL: 25.2%
[1]; [13]
  activity at 2 µg/mL: 35.1%
[2]; [14]
  activity at 2 µg/mL: 22.8%
[2]; [15]
  activity at 2 µg/mL: 39.3%
[3]; Toxoplasma gondii; library screen at 2 μg/mL, 72 h, % growth, replicate 1; read-out: Tg_72h_%Growth_Rep1
  percent parasite growth at 2 µg/mL: 133%
[3]; Toxoplasma gondii; library screen at 2 μg/mL, 72 h, % growth, replicate 2; read-out: Tg_72h_%Growth_Rep2
  percent parasite growth at 2 µg/mL: 104%

## COc1c(O)c(C)c(C)c(O)c1OC [BIA-H1651]
[1]; P. falciparum 3D7, 72 h, library screen at 2 μg/mL, % growth, replicate 1
  Pf_72h_%Growth_Rep1: 6.09%
[1]; P. falciparum 3D7, 72 h, library screen at 2 μg/mL, % growth, replicate 2
  Pf_72h_%Growth_Rep2: 2.27%
[2]; P. falciparum 3D7, 120 h, library screen at 2 μg/mL, % growth, replicate 1
  Pf_120h_%Growth_Rep1: 17.29%
[2]; P. falciparum 3D7, 120 h, library screen at 2 μg/mL, % growth, replicate 2
  Pf_120h_%Growth_Rep2: 12.27%
[3]; T. gondii RH, 72 h, library screen at 2 μg/mL, % growth, replicate 1
  Tg_72h_%Growth_Rep1: 138.57%
[3]; T. gondii RH, 72 h, library screen at 2 μg/mL, % growth, replicate 2
  Tg_72h_%Growth_Rep2: 100.12%

## C=C1[C@@H](C)[C@H]2[C@H](Cc3ccccc3)NC(=O)[C@]23OC(=O)/C=C/[C@H](O)CCC[C@@H](C)C/C=C/[C@H]3[C@@H]1O [Cytochalasin B]
[1]; 3D7, 72 h, P. falciparum, 72 h, screen at 2 μg/mL, replicate 1, read-out: Pf_72h_%Growth_Rep1
  activity at 2 µg/mL: 8.23%
[1]; 3D7, 72 h, P. falciparum, 72 h, screen at 2 μg/mL, replicate 2, read-out: Pf_72h_%Growth_Rep2
  activity at 2 µg/mL: 10.3%
[2]; 3D7, 120 h, P. falciparum, 120 h, screen at 2 μg/mL, replicate 1, read-out: Pf_120h_%Growth_Rep1
  activity at 2 µg/mL: -1.09%
[2]; 3D7, 120 h, P. falciparum, 120 h, screen at 2 μg/mL, replicate 2, read-out: Pf_120h_%Growth_Rep2
  activity at 2 µg/mL: 8.72%
[3]; Toxoplasma gondii, 72 h, T. gondii, 72 h, screen at 2 μg/mL, replicate 1; read-out: Tg_72h_%Growth_Rep1
  percent parasite growth at 2 µg/mL: 31.3%
[3]; Toxoplasma gondii, 72 h, T. gondii, 72 h, screen at 2 μg/mL, replicate 2; read-out: Tg_72h_%Growth_Rep2
  percent parasite growth at 2 µg/mL: 60.5%

## CC[C@H](C)C[C@H](C)CCCCCCCCC(=O)N[C@H]1C[C@@H](O)[C@@H](O)NC(=O)[C@@H]2[C@@H](O)CCN2C(=O)[C@H]([C@H](O)CC(N)=O)NC(=O)[C@H]([C@H](O)[C@@H](O)c2ccc(O)cc2)NC(=O)[C@@H]2C[C@@H](O)CN2C(=O)[C@H]([C@@H](C)O)NC1=O [Pneumocandin B0] ({Tetradecanoyl(10R,12S-Me2)}-[Orn(4R-OH,5R-OH)]T[Hyp][hTyr(3S-OH,4S-OH)][Gln(3R-OH)][Pro(3S-OH)]; lactam 1-C)
[1]; [4]
  Pf_72h_%Growth_Rep1: 84.80%
[1]; [5]
  Pf_72h_%Growth_Rep2: 90.52%
[2]; [6]
  Pf_120h_%Growth_Rep1: 81.62%
[2]; [7]
  Pf_120h_%Growth_Rep2: 136.49%
[3]; [8]
  Tg_72h_%Growth_Rep1: 104.00%
[3]; [9]
  Tg_72h_%Growth_Rep2: 85.61%

## O=C(N[C@H](COC(=O)[C@H](Cc1ccccc1)NC(=O)c1ccccc1)Cc1ccccc1)c1ccccc1 [Asperphenamate]
[1]; [12]
  activity at 2 µg/mL: 84.3%
[1]; [13]
  activity at 2 µg/mL: 83.3%
[2]; [14]
  activity at 2 µg/mL: 69.7%
[2]; [15]
  activity at 2 µg/mL: 85.4%
[3]; Toxoplasma gondii, 72 h, library screen at 2 μg/mL, 72 h, % growth, replicate 1; read-out: Tg_72h_%Growth_Rep1
  percent parasite growth at 2 µg/mL: 150%
[3]; Toxoplasma gondii, 72 h, library screen at 2 μg/mL, 72 h, % growth, replicate 2; read-out: Tg_72h_%Growth_Rep2
  percent parasite growth at 2 µg/mL: 107%

## COc1ccc2c3c4n(c2c1)[C@H](C=C(C)C)OOC(C)(C)C[C@@H]4N1C(=O)[C@@H]2CCCN2C(=O)[C@]1(O)[C@H]3O [Verruculogen]
[1]; [16]
  activity at 2 µg/mL: 58.1%
[1]; [17]
  activity at 2 µg/mL: 88.5%
[2]; [18]
  activity at 2 µg/mL: 144%
[2]; [19]
  activity at 2 µg/mL: 80.6%
[3]; Toxoplasma gondii; T. gondii, 72 h, screen at 2 μg/mL, replicate 1; read-out: Tg_72h_%Growth_Rep1
  percent parasite growth at 2 µg/mL: 92.4%
[3]; Toxoplasma gondii; T. gondii, 72 h, screen at 2 μg/mL, replicate 2; read-out: Tg_72h_%Growth_Rep2
  percent parasite growth at 2 µg/mL: 102%

## CC[C@H]1OC(=O)C[C@@H](O)[C@H](C)[C@@H](O[C@@H]2O[C@H](C)[C@@H](O)[C@H](N(C)C)[C@H]2O)[C@@H](CCN2CCCCC2)C[C@@H](C)C(=O)/C=C/C(C)=C/[C@@H]1CN1CCCCC1 [Tildipirosin]
[1]; [16]
  activity at 2 µg/mL: 10.8%
[1]; [17]
  activity at 2 µg/mL: 5.94%
[2]; [18]
  activity at 2 µg/mL: 9.99%
[2]; [19]
  activity at 2 µg/mL: 11.7%
[3]; Toxoplasma gondii, 72 h, read-out: Tg_72h_%Growth_Rep1
  percent parasite growth at 2 µg/mL: 87.8%
[3]; Toxoplasma gondii, 72 h, read-out: Tg_72h_%Growth_Rep2
  percent parasite growth at 2 µg/mL: 85.6%
